Data as given in publication PMC7588595, “Small-molecule active pharmaceutical ingredients of approved cancer therapeutics inhibit human aspartate/asparagine-β-hydroxylase” (Bioorganic & Medicinal Chemistry, 2020).
Structures can show the parent of a compound that is named as a salt. Where two headings read alike, the source gives them in different places.

Target: T1, human AspH (His6-AspH315–758) (Homo sapiens, UniProt Q12797)
T1 construct: N-Terminally His6-tagged human AspH315–758 (His6-AspH315–758) was produced in Escherichia coli BL21 (DE3) cells; made in house; host or cells: Escherichia coli BL21 (DE3), pET-28a(+) vector
T1 sequence (Q12797 315-758): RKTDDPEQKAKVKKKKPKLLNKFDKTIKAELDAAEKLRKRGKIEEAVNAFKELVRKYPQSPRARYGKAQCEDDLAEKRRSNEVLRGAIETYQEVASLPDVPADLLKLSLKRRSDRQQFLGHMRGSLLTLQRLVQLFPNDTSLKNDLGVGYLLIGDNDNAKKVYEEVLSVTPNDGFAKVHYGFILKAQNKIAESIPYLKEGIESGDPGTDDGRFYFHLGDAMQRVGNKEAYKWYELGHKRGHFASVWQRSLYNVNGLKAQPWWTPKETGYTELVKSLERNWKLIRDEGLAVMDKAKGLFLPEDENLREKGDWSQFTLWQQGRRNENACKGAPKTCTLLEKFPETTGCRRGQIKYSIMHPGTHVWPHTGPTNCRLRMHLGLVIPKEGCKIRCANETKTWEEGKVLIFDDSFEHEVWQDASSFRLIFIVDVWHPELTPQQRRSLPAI
Test: SPE-MS AspH inhibition assay (hFX-CP101-119 substrate hydroxylation)
Assay type: biochemical

[1] = AspH-inhibitor screening, 384-well Plate 1
[2] = AspH-inhibitor screening, 384-well Plate 1, substrate conversion
[3] = AspH-inhibitor screening, Plate 1-duplicate
[4] = AspH-inhibitor screening, Plate 1-duplicate, substrate conversion

SMILES | Plate 1 (% inhibition) [1] [%] | Plate 1 (% conversion) [2] [%] | Plate 1-duplicate (% inhibition) [3] [%] | Plate 1-duplicate (% conversion) [4] [%] | Plate 1 (% conversion) [%] | Plate 1 (% inhibition) [%] | Plate 1-duplicate (% conversion) [%] | Plate 1-duplicate (% inhibition) [%]
Cl.NC(=O)Nc1cc(-c2cccc(F)c2)sc1C(=O)N[C@H]1CCCNC1 [AZD 7762 hydrochloride] | 14.30 | 43.15 | 4.66 | 49.73 |  |  |  | 
C[C@]12CC[C@H](O)CC1=CC[C@@H]1[C@@H]2CC[C@]2(C)C(c3cccnc3)=CC[C@@H]12 [Abiraterone] | 1.80 | 48.92 | 1.40 | 51.35 |  |  |  | 
CN(Cc1cnc2nc(N)nc(N)c2n1)c1ccc(C(=O)N[C@@H](CCC(=O)O)C(=O)O)cc1 [Abitrexate/Methotrexate] | 8.67 | 45.75 | 10.50 | 46.84 |  |  |  | 
CCc1cc2c(cc1N1CCC(N3CCOCC3)CC1)C(C)(C)c1[nH]c3cc(C#N)ccc3c1C2=O [Alectinib] | -0.39 | 49.93 | 8.49 | 47.83 |  |  |  | 
Oc1ncnc2[nH]ncc12 [Allopurinol] | -0.61 | 50.03 | 4.67 | 49.73 |  |  |  | 
CN(C)c1nc(N(C)C)nc(N(C)C)n1 [Altretamine] | 3.32 | 48.22 | 13.59 | 45.30 |  |  |  | 
NCCCNCCSP(=O)(O)O [Amifostine] | 3.65 | 48.06 | 5.75 | 49.19 |  |  |  | 
CCC1(c2ccc(N)cc2)CCC(=O)NC1=O (stereo not shown) [Aminoglutethimide] | 11.22 | 44.57 | 9.40 | 47.38 |  |  |  | 
NCC(=O)CCC(=O)O [Aminolevulinic acid hydrochloride] | 20.47 | 40.30 | 25.89 | 39.20 |  |  |  | 
CN(C)CCN1C(=O)c2cccc3cc(N)cc(c23)C1=O [Amonafide] | 4.40 | 47.72 | 3.28 | 50.42 |  |  |  | 
O=C1CN2Cc3c(ccc(Cl)c3Cl)N=C2N1 [Anagrelide] | 0.57 | 49.49 | 0.27 | 51.91 |  |  |  | 
CC(C)(C#N)c1cc(Cn2cncn2)cc(C(C)(C)C#N)c1 [Anastrozole] | 2.34 | 48.67 | 3.84 | 50.14 |  |  |  | 
O=[As]O[As]=O (stereo not shown) [Arsenic(III) oxide] |  |  |  |  | 46.14 | 7.82 | 49.86 | 4.39
CC(=O)Oc1ccccc1C(=O)O [Aspirin (Acetylsalicylic Acid)] | 8.11 | 46.01 | 6.00 | 49.07 |  |  |  | 
CC(C)c1c(C(=O)Nc2ccccc2)c(-c2ccccc2)c(-c2ccc(F)cc2)n1CC[C@@H](O)C[C@@H](O)CC(=O)[O-].CC(C)c1c(C(=O)Nc2ccccc2)c(-c2ccccc2)c(-c2ccc(F)cc2)n1CC[C@@H](O)C[C@@H](O)CC(=O)[O-].[Ca+2] [Atorvastatin Ca] |  |  |  |  |  | 0.42 |  | -1.82
CC(=O)OC[C@H]1O[C@@H]([S-])[C@H](OC(C)=O)[C@@H](OC(C)=O)[C@@H]1OC(C)=O.CCP(CC)CC.[Au+] [Auranofin] | 60.34 | 21.89 | 55.51 | 24.51 |  |  |  | 
CNC(=O)c1ccccc1Sc1ccc2c(/C=C/c3ccccn3)n[nH]c2c1 [Axitinib] | 0.59 | 49.48 | -0.34 | 52.21 |  |  |  | 
Nc1ncn([C@@H]2O[C@H](CO)[C@@H](O)[C@H]2O)c(=O)n1 [Azacitidine] | 17.64 | 41.61 | 12.26 | 45.96 |  |  |  | 

SMILES | Plate 1 (% inhibition) [1] [%] | Plate 1 (% conversion) [2] [%] | Plate 1-duplicate (% inhibition) [3] [%] | Plate 1-duplicate (% conversion) [4] [%] | Plate 1 (% conversion) [%] | Plate 1 (% inhibition) [%] | Plate 1-duplicate (% conversion) [%] | Plate 1-duplicate (% inhibition) [%]
CNC(=O)c1cc(Oc2ccc(NC(=O)Nc3ccc(Cl)c(C(F)(F)F)c3)c(F)c2)ccn1 [BAY 73-4506_Regorafenib] | 62.82 | 20.74 | 53.45 | 25.53 |  |  |  | 
CC[C@@H]1C(=O)N(C)c2cnc(Nc3ccc(C(=O)N[C@H]4CC[C@H](N5CCN(CC6CC6)CC5)CC4)cc3OC)nc2N1C(C)C [BI 6727_Volasertib] | -9.00 | 53.91 | -19.71 | 61.82 |  |  |  | 
COC(=O)c1ccc2c(c1)NC(=O)/C2=C(\Nc1ccc(N(C)C(=O)CN2CCN(C)CC2)cc1)c1ccccc1 [BIBF 1120_Nintedanib] | -13.53 | 56.00 | -2.41 | 53.24 |  |  |  | 
CN(C)C/C=C/C(=O)Nc1cc2c(Nc3ccc(F)c(Cl)c3)ncnc2cc1O[C@H]1CCOC1 [BIBW2992 (Tovok)_Afatinib] | -24.14 | 60.90 | -42.32 | 73.03 |  |  |  | 
COc1c(C)cnc(Cn2cnc3c(Cl)nc(N)nc32)c1C [BIIB021] | 5.65 | 47.14 | 5.00 | 49.56 |  |  |  | 
Cc1ccc(-n2nc(C(C)(C)C)cc2NC(=O)Nc2ccc(OCCN3CCOCC3)c3ccccc23)cc1 [BIRB 796 (Doramapimod)] | 7.83 | 46.14 | 2.76 | 50.67 |  |  |  | 
Nc1cc(C(F)(F)F)c(-c2cc(N3CCOCC3)nc(N3CCOCC3)n2)cn1 [BKM-120_Buparlisib] | 1.72 | 48.96 | -1.07 | 52.57 |  |  |  | 
CCn1c(C(=O)N(C2CC2)C2CC2)cc2c3c(ncn3C)c(Nc3cc(C)n(C)n3)nc21 [BMS-911543] | -9.55 | 54.16 | -14.91 | 59.44 |  |  |  | 
O=C(/C=C/c1cccc(S(=O)(=O)Nc2ccccc2)c1)NO [Belinostat (PXD101)] | 97.27 | 4.83 | 96.98 | 3.94 |  |  |  | 
Cl.Cn1c(CCCC(=O)O)nc2cc(N(CCCl)CCCl)ccc21 [Bendamustine hydrochloride] | 2.89 | 48.41 | 4.93 | 49.60 |  |  |  | 
C=C(c1ccc(C(=O)O)cc1)c1cc2c(cc1C)C(C)(C)CCC2(C)C [Bexarotene] | -5.40 | 52.24 | -0.39 | 52.24 |  |  |  | 
CC(O)(CS(=O)(=O)c1ccc(F)cc1)C(=O)Nc1ccc(C#N)c(C(F)(F)F)c1 (stereo not shown) [Bicalutamide] | -2.20 | 50.76 | 0.00746 | 52.04 |  |  |  | 
CCNC(=O)CCC/C=C\C[C@@H]1[C@@H](/C=C/[C@@H](O)CCc2ccccc2)[C@H](O)C[C@@H]1O [Bimatoprost] | -1.86 | 50.61 | -1.99 | 53.03 |  |  |  | 
CC(C)C[C@H](NC(=O)[C@H](Cc1ccccc1)NC(=O)c1cnccn1)B(O)O [Bortezomib] | 6.81 | 46.61 | 7.89 | 48.13 |  |  |  | 
COc1cc(Nc2c(C#N)cnc3cc(OCCCN4CCN(C)CC4)c(OC)cc23)c(Cl)cc1Cl [Bosutinib] | -48.53 | 72.16 | -50.33 | 77.00 |  |  |  | 
Cc1cc2c(F)c(Oc3ncnn4cc(OC[C@@H](C)O)c(C)c34)ccc2[nH]1 [Brivanib] | 6.97 | 46.53 | 3.72 | 50.20 |  |  |  | 
CS(=O)(=O)OCCCCOS(C)(=O)=O [Busulfan] | 14.61 | 43.00 | 8.69 | 47.73 |  |  |  | 
CC[C@H](Nc1ncnc2[nH]cnc12)c1nc2cccc(F)c2c(=O)n1-c1ccccc1 [CAL-101] | 5.28 | 47.31 | 3.08 | 50.52 |  |  |  | 
